Assay results published in patent publication US9085561B2, “Cyclic urea- or lactam-substituted quinoxaline-type piperidines as ORL-1 modulators” (priority 2012, dated 2015).

Target: human CYP2D6 (Homo sapiens, UniProt P10635)
Test: Cytochrome P450 2D6 inhibition (dextromethorphan O-demethylation, pooled human hepatic microsome)

human CYP2D6, sequence (P10635 whole entry): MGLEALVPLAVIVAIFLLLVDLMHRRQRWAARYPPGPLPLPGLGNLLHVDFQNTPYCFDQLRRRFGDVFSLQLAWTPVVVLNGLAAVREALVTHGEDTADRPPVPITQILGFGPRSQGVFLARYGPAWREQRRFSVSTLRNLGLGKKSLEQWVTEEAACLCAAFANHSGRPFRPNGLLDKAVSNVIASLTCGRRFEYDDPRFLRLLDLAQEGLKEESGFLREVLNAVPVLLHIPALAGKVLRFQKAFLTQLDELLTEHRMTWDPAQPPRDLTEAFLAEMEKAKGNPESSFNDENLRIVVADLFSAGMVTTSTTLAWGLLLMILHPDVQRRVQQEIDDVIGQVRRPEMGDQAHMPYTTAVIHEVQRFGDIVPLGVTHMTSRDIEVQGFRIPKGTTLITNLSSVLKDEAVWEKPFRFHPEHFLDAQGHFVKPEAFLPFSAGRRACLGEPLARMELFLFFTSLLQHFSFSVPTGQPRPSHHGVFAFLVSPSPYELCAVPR

Row | Structure (SMILES) | IC50
1 | Nc1nc(=O)n(-c2nc3ccccc3n([C@H]3C[C@H]4CCC[C@@H](C3)N4[C@H]3C[C@@H]4CCC[C@@H](C4)C3)c2=O)cc1F [B7a(i), 1-((1R,1′R,3r,3′R,5S,5′S)-[3,9′-bi(9′-azabicyclo[3.3.1]nonan)]-3′-yl)-3-(4-amino-5-fluoro-2-oxopyrimidin-1(2H)-yl)quinoxalin-2(1H)-one] | > 20 µM
2 | O=C(O)Cn1c(-c2nc3ccccc3n([C@H]3C[C@H]4CCC[C@@H](C3)N4C3CCCCCCCCC3)c2=O)cccc1=O [BB1c(iii), 2-(6-(4-((1R,3r,5S)-9-cyclodecyl-9-azabicyclo[3.3.1]nonan-3-yl)-3-oxo-3,4-dihydroquinoxalin-2-yl)-2-oxopyridin-1(2H)-yl)acetic acid] | > 20 µM
3 | O=c1c(N2CCNCC2)nc2ccccc2n1C1CCN(C2CCCCCCC2)CC1 [CC10, reference compound] | < 1 µM
4 | O=C1CN(c2nc3ccccc3n(C3CCN(C4CCCCCCC4)CC3)c2=O)CCN1 [CC18, reference compound] | < 1 µM
5 | NC1CCN(c2nc3ccccc3n(C3CCN(C4CCCCCCC4)CC3)c2=O)CC1 [CC22, reference compound] | 1 µM
6 | N[C@H]1CCN(c2nc3ccccc3n(C3CCN(C4CCCCCCC4)CC3)c2=O)C1 [CC39, reference compound] | < 1 µM
7 | N[C@@H]1CCN(c2nc3ccccc3n(C3CCN(C4CCCCCCC4)CC3)c2=O)C1 [CC51, reference compound] | < 1 µM
8 | N[C@@H]1CCN(c2nc3ccccc3n([C@H]3C[C@H]4CC[C@@H](C3)N4C3CCCCCCC3)c2=O)C1 [CC101, reference compound] | < 1 µM
9 | O=C1CCN(c2nc3ccccc3n(C3CCN(C4CCCCCCC4)CC3)c2=O)N1 [CC119, reference compound] | > 20 µM
10 | O=C(O)CN1CCN(c2nc3ccccc3n([C@H]3C[C@H]4CC[C@@H](C3)N4C3CCCCCCC3)c2=O)CC1 [CC337, reference compound] | 13 µM
11 | O=c1[nH]c(=O)n(-c2nc3ccccc3n([C@H]3C[C@H]4CCC[C@@H](C3)N4[C@H]3C[C@@H]4CCC[C@@H](C4)C3)c2=O)cc1Br [Compound B16a, 1-(4-((1R,1′R,3r,3R,5S,5′S)-[3,9′-bi(9′-azabicyclo[3.3.1]nonan)]-3′-yl)-3-oxo-3,4-dihydroquinoxalin-2-yl)-5-bromopyrimidine-2,4(1H,3H)-dione] | > 20 µM
12 | C[C@@H]1C[C@@H]2C[C@H](C1)C[C@@H](N1[C@@H]3CCC[C@H]1C[C@@H](n1c(=O)c(-n4ncc(=O)[nH]c4=O)nc4ccccc41)C3)C2 [Compound B34a, 2-(4-((1R,1′R,3r,3′R,5S,5′S,7S)-7-methyl-[3,9′-bi(9′-azabicyclo[3.3.1]nonan)]-3′-yl)-3-oxo-3,4-dihydroquinoxalin-2-yl)-1,2,4-triazine-3,5(2H,4H)-dione] | > 20 µM
13 | C[C@@H]1C[C@@H]2C[C@H](C1)C[C@@H](N1[C@@H]3CCC[C@H]1C[C@@H](n1c(=O)c(N4C(=O)NC(C)(C)C4=O)nc4ccccc41)C3)C2 [Compound B47a] | > 20 µM
14 | O=c1cnn(-c2nc3ccccc3n([C@H]3C[C@H]4CC[C@@H](C3)N4[C@@H]3C[C@@H]4CCCC[C@@H](C4)C3)c2=O)c(=O)[nH]1 [Compound N9b, 2-(4-((1R,3R,5S)-8-((1R,6S,8s)-bicyclo[4.3.1]decan-8-yl)-8-azabicyclo[3.2.1]octan-3-yl)-3-oxo-3,4-dihydroquinoxalin-2-yl)-1,2,4-triazine-3,5(2H,4H)-dione] | > 20 µM
15 | Cc1nn(-c2nc3ccccc3n([C@H]3C[C@H]4CCC[C@@H](C3)N4[C@@H]3C[C@@H]4CCCC[C@@H](C4)C3)c2=O)c(=O)[nH]c1=O [Compound O10b, 2-(4-((1R,3R,5 S)-9-((1R,6S,8s)-bicyclo[4.3.1]decan-8-yl)-9-azabicyclo[3.3.1]nonan-3-yl)-3-oxo-3,4-dihydroquinoxalin-2-yl)-6-methyl-1,2,4-triazine-3,5(2H,4H)-dione] | > 20 µM
16 | CC1(C)NC(=O)N(c2nc3ccccc3n([C@H]3C[C@H]4CCC[C@@H](C3)N4[C@@H]3C[C@@H]4CCCC[C@@H](C4)C3)c2=O)C1=O [Compound O22b, 3-(4-((1R,3R,5S)-9-((1R,6S,8s)-bicyclo[4.3.1]decan-8-yl)-9-azabicyclo[3.3.1]nonan-3-yl)-3-oxo-3,4-dihydroquinoxalin-2-yl)-5,5-dimethylimidazolidine-2,4-dione] | > 20 µM
17 | O=C(O)Cn1cc(-c2nc3ccccc3n([C@H]3C[C@H]4CCC[C@@H](C3)N4[C@H]3C[C@@H]4CCC[C@@H](C4)C3)c2=O)ccc1=O [Compound U007, 2-(5-(4-((1R,1′R,3r,3′R,5S,5′S)-[3,9′-bi(9′-azabicyclo[3.3.1]nonan)]-3′-yl)-3-oxo-3,4-dihydroquinoxalin-2-yl)-2-oxopyridin-1(2H)-yl)acetic acid] | > 20 µM
18 | O=C(O)Cn1ccc(-c2nc3ccccc3n([C@H]3C[C@H]4CCC[C@@H](C3)N4[C@H]3C[C@@H]4CCC[C@@H](C4)C3)c2=O)cc1=O [Compound U010, 2-(4-(4-((1R,1′R,3r,3R,5S,5′S)-[3,9′-bi(9′-azabicyclo[3.3.1]nonan)]-3′-yl)-3-oxo-3,4-dihydroquinoxalin-2-yl)-2-oxopyridin-1(2H)-yl)acetic acid] | > 20 µM
19 | O=C(O)c1cc(-c2nc3ccccc3n([C@H]3C[C@H]4CCC[C@@H](C3)N4[C@@H]3C[C@@H]4CCCC[C@@H](C4)C3)c2=O)c[nH]c1=O [Compound U043, 5-(4-((1R,3R,5S)-9-((1R,6S,8s)-bicyclo[4.3.1]decan-8-yl)-9-azabicyclo[3.3.1]nonan-3-yl)-3-oxo-3,4-dihydroquinoxalin-2-yl)-2-oxo-1,2-dihydropyridine-3-carboxylic acid] | > 20 µM
20 | C[C@@H]1C[C@@H]2C[C@H](C1)C[C@@H](N1[C@@H]3CCC[C@H]1C[C@@H](n1c(=O)c(-c4c[nH]c(=O)cn4)nc4ccccc41)C3)C2 [Compound U052, 1-((1R,1′R,3r,3′R,5S,5′S,7S)-7-methyl-[3,9′-bi(9′-azabicyclo[3.3.1]nonan)]-3′-yl)-3-(5-oxo-4,5-dihydropyrazin-2-yl)quinoxalin-2(1H)-one] | > 20 µM
21 | C[C@@H]1C[C@@H]2C[C@H](C1)C[C@@H](N1[C@@H]3CCC[C@H]1C[C@@H](n1c(=O)c(-c4ccc(=O)[nH]c4)nc4ccccc41)C3)C2 [Compound U060, 1-((1R,1′R,3r,3′R,5S,5′S,7S)-7-methyl-[3,9′-bi(9′-azabicyclo[3.3.1]nonan)]-3′-yl)-3-(6-oxo-1,6-dihydropyridin-3-yl)quinoxalin-2(1H)-one] | > 20 µM
22 | C[C@@H]1C[C@@H]2C[C@H](C1)C[C@@H](N1[C@@H]3CCC[C@H]1C[C@@H](n1c(=O)c(-c4c[nH]c(=O)c(C(N)=O)c4)nc4ccccc41)C3)C2 [Compound U063, 5-(4-((1R,1′R,3r,3′R,5S,5′S,7S)-7-methyl-[3,9′-bi(9′-azabicyclo[3.3.1]nonan)]-3′-yl)-3-oxo-3,4-dihydroquinoxalin-2-yl)-2-oxo-1,2-dihydropyridine-3-carboxamide] | 7.2 µM
23 | C[C@@H]1C[C@@H]2C[C@H](C1)C[C@@H](N1[C@@H]3CCC[C@H]1C[C@@H](n1c(=O)c(-c4c[nH]c(=O)c(C(=O)O)c4)nc4ccccc41)C3)C2 [Compound U064, 5-(4-((1R,1′R,3r,3′R,5S,5′S,7S)-7-methyl-[3,9′-bi(9′-azabicyclo[3.3.1]nonan)]-3′-yl)-3-oxo-3,4-dihydroquinoxalin-2-yl)-2-oxo-1,2-dihydropyridine-3-carboxylic acid] | > 20 µM
24 | Cc1cc(=O)[nH]c(=O)n1-c1nc2ccccc2n([C@H]2C[C@H]3CCC[C@@H](C2)N3[C@H]2C[C@@H]3CCC[C@@H](C3)C2)c1=O [Compound U065, 1-(4-((1R,1R,3r,3′R,5S,5′S)-[3,9′-bi(9′-azabicyclo[3.3.1]nonan)]-3′-yl)-3-oxo-3,4-dihydroquinoxalin-2-yl)-6-methylpyrimidine-2,4(1H,3H)-dione] | > 20 µM
25 | Nc1ccn(-c2nc3ccccc3n([C@H]3C[C@H]4CC[C@@H](C3)N4[C@@H]3C[C@@H]4CCCC[C@@H](C4)C3)c2=O)c(=O)n1 [Compound U066, 3-(4-amino-2-oxopyrimidin-1(2H)-yl)-1-((1R,3R,5S)-8-((1R,6S,8s)-bicyclo[4.3.1]decan-8-yl)-8-azabicyclo[3.2.1]octan-3-yl)quinoxalin-2(1H)-one] | > 20 µM
26 | Nc1nc(=O)n(-c2nc3ccccc3n([C@H]3C[C@H]4CCC[C@@H](C3)N4[C@@H]3C[C@@H]4CCCC[C@@H](C4)C3)c2=O)cc1F [Compound U067] | > 20 µM
27 | O=C(O)Cn1c(-c2nc3ccccc3n([C@H]3C[C@H]4CC[C@@H](C3)N4[C@@H]3C[C@@H]4CCCC[C@@H](C4)C3)c2=O)cccc1=O [DD1b(iii), 2-(6-(4-((1R,3R,5S)-8-((1R,6S,8s)-bicyclo[4.3.1]decan-8-yl)-8-azabicyclo[3.2.1]octan-3-yl)-3-oxo-3,4-dihydroquinoxalin-2-yl)-2-oxopyridin-1(2H)-yl)acetic acid] | > 20 µM
28 | O=C(O)Cn1c(-c2nc3ccccc3n([C@H]3C[C@H]4CCC[C@@H](C3)N4[C@@H]3C[C@@H]4CCCC[C@@H](C4)C3)c2=O)cccc1=O [EE1b(iii), 2-(6-(4-((1R,3R,5S)-9-((1R,6S,8s)-bicyclo[4.3.1]decan-8-yl)-9-azabicyclo[3.3.1]nonan-3-yl)-3-oxo-3,4-dihydroquinoxalin-2-yl)-2-oxopyridin-1(2H)-yl)acetic acid] | > 20 µM
29 | O=c1[nH]nc(-c2nc3ccccc3n([C@H]3C[C@H]4CCC[C@@H](C3)N4[C@@H]3C[C@@H]4CCCC[C@@H](C4)C3)c2=O)[nH]1 [EE6b(i)(i), 1-((1R,3R,5S)-9-((1R,6S,8s)-bicyclo[4.3.1]decan-8-yl)-9-azabicyclo[3.3.1]nonan-3-yl)-3-(5-oxo-4,5-dihydro-1H-1,2,4-triazol-3-yl)quinoxalin-2(1H)-one] | > 20 µM
30 | O=C(O)Cn1c(-c2nc3ccccc3n([C@H]3C[C@H]4CC[C@@H](C3)N4[C@H]3C[C@@H]4CCC[C@@H](C4)C3)c2=O)cccc1=O [Q1a(iii), 2-(6-(4-((1R,3R,5S)-8-((1R,3r,5S)-bicyclo[3.3.1]nonan-3-yl)-8-azabicyclo[3.2.1]octan-3-yl)-3-oxo-3,4-dihydroquinoxalin-2-yl)-2-oxopyridin-1(2H)-yl)acetic acid] | > 20 µM
